ChEMBL document CHEMBL1144031, “[4-(Phenoxy)pyridin-3-yl]methylamines: a new class of selective noradrenaline reuptake inhibitors” (Bioorg Med Chem Lett, 2008)

Experiments:
[1] = molecular target: Sodium-dependent noradrenaline transporter (Homo sapiens, UniProt P23975)
Description: Inhibition of [3H]Nisoxetine uptake in human noradrenaline transporter transfected HEK293 cells

[2] = molecular target: Sodium-dependent serotonin transporter (Homo sapiens, UniProt P31645); assay: Inhibition of [3H]Citalopram uptake in human 5HTT transfected HEK293 cells; type: cell-based
[3] = molecular target: Sodium-dependent dopamine transporter (Homo sapiens, UniProt Q01959); assay: Inhibition of [3H]WIN-35428 uptake in human DAT transfected HEK293 cells; type: cell-based
Sequence of Sodium-dependent dopamine transporter (Q01959 whole entry): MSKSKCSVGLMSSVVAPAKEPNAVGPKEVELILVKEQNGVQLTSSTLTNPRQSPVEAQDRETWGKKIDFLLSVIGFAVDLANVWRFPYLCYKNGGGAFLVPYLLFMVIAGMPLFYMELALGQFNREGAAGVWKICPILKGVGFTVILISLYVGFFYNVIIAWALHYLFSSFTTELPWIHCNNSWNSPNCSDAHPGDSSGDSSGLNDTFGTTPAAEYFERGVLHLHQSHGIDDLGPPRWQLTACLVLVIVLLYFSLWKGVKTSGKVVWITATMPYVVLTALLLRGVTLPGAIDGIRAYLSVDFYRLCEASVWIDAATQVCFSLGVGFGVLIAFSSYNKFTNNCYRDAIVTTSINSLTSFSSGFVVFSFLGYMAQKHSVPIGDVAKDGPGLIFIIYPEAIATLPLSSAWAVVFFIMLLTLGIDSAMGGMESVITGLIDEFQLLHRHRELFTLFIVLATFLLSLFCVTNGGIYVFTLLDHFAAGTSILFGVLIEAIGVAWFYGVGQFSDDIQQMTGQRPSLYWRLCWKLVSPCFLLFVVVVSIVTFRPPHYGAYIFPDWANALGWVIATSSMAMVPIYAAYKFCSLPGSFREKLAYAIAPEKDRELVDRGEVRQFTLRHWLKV

[4] = Metabolic stability assessed as intrinsic clearance in human liver microsome; type: ADME; settings: liver microsomes
[5] = system: P-gp; assay: Apparent permeability from basolateral to apical side of the dog MDCK cells expressing Pgp transporter; type: ADME, cell-based, Canis lupus familiaris; settings: MDCK-MDR1
[6] = system: P-gp; assay: Apparent permeability from apical to basolateral side of the dog MDCK cells expressing P-gp transporter; type: ADME, cell-based, Canis lupus familiaris; settings: MDCK-MDR1
[7] = Lipophilicity, logD at pH 7.4; type: physicochemical; settings: buffer
[8] = Dissociation constant, pKa of the compound; type: physicochemical
[9] = molecular target: Cytochrome P450 2D6 (Homo sapiens, UniProt P10635); assay: Inhibition of CYP2D6; type: ADME
Sequence of Cytochrome P450 2D6 (P10635 whole entry): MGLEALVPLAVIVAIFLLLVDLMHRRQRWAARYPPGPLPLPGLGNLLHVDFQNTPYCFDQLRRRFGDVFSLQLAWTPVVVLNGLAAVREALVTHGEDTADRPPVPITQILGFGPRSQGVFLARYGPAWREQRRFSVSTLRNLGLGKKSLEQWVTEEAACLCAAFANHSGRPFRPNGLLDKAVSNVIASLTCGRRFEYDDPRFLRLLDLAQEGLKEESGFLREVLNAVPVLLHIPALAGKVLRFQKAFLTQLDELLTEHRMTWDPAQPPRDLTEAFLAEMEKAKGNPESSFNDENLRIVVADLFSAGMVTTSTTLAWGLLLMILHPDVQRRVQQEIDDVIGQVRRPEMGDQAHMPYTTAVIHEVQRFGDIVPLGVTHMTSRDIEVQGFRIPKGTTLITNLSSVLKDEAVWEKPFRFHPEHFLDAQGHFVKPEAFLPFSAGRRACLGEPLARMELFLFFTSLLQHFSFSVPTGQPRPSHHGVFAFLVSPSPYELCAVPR

[10] = Displacement of [3H]noradrenaline from rat noradrenaline transporter expressed in HEK293 cells; type: cell-based
[11] = Lipophilicity, logP of the compound; type: physicochemical; settings: octanol/water
[12] = Apparent permeability from basolateral to apical side of the human CaCO2 membrane; type: ADME, cell-based; settings: Caco-2
[13] = Binding affinity to sodium channel site 2
[14] = system: Hepatocyte; assay: Metabolic stability assessed as intrinsic clearance in human hepatocytes; type: ADME, cell-based, Liver
[15] = molecular target: Kappa-type opioid receptor (Homo sapiens) (UniProt P41145); assay: Inhibition of kappa opioid receptor at 10 uM
Sequence of Kappa-type opioid receptor (Homo sapiens) (P41145 whole entry): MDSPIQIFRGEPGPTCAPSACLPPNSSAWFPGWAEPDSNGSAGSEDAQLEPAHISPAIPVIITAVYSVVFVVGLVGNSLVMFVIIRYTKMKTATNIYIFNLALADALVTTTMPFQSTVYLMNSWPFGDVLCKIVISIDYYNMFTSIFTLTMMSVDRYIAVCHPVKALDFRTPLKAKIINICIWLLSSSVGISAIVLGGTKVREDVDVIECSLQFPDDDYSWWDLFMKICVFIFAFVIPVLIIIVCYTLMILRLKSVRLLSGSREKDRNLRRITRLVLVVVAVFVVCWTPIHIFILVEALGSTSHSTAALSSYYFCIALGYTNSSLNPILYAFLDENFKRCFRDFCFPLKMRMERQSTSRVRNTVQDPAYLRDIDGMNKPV

[16] = molecular target: Mu-type opioid receptor (Homo sapiens) (UniProt P35372); assay: Inhibition of mu opioid receptor at 10 uM
Sequence of Mu-type opioid receptor (Homo sapiens) (P35372 whole entry): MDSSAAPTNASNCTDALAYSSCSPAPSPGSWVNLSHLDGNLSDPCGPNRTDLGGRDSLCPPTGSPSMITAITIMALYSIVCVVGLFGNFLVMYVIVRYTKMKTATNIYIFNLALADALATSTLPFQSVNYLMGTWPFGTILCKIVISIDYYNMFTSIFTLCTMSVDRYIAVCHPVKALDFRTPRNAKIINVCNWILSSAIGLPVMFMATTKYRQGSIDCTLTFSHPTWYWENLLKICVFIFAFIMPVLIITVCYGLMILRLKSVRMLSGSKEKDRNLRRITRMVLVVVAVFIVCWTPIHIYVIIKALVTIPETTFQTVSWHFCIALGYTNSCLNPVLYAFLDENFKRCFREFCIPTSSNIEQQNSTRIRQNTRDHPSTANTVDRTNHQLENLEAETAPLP

[17] = molecular target: T1, 5-hydroxytryptamine receptor 2C (Homo sapiens) (UniProt P28335); assay: Inhibition of 5HT2C receptor at 10 uM
T1 sequence (whole entry): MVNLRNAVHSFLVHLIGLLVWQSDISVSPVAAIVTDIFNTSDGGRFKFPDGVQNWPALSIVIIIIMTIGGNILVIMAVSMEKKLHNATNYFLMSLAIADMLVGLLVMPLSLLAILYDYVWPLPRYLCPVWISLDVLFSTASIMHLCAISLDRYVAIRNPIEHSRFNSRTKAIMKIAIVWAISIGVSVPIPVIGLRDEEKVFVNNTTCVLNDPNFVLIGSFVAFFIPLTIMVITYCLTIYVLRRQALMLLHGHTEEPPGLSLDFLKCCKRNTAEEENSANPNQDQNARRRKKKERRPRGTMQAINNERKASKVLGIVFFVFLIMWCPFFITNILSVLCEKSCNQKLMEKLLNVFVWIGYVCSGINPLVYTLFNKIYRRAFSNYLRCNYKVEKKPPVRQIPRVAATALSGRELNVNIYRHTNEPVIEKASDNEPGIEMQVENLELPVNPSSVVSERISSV

[18] = molecular target: T2, Cytochrome P450 1A2 (Homo sapiens, UniProt P05177); assay: Inhibition of CYP1A2; type: ADME
T2 sequence (P05177 whole entry): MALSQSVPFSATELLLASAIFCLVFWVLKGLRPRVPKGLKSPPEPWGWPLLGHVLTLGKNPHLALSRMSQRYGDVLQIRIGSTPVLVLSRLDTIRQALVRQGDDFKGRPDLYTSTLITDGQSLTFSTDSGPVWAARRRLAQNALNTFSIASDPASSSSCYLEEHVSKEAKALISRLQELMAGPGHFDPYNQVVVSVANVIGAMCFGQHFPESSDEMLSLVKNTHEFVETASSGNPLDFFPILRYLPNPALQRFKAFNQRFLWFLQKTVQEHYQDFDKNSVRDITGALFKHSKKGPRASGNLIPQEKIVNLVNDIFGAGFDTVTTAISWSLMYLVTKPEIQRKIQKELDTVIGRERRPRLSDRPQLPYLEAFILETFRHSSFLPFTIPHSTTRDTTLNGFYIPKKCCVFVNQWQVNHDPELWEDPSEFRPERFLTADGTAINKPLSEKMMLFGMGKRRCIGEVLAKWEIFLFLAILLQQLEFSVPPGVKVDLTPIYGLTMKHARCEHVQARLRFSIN

[19] = Half life in human liver microsome; type: ADME; settings: liver microsomes
[20] = Binding affinity to calcium channel L-type at diltiazem site
[21] = Apparent permeability from apical to basolateral side of the human CaCO2 membrane; type: ADME, cell-based; settings: Caco-2
[22] = system: Rattus norvegicus; assay: Increase in noradrenaline level in interstitial fluid of conscious rat prefrontal cortex at 0.3 mg/kg, sc relative to baseline; type: functional; settings: route subcutaneous
[23] = molecular target: Cytochrome P450 3A4 (Homo sapiens, UniProt P08684); assay: Inhibition of CYP3A4; type: ADME
Sequence of Cytochrome P450 3A4 (P08684 whole entry): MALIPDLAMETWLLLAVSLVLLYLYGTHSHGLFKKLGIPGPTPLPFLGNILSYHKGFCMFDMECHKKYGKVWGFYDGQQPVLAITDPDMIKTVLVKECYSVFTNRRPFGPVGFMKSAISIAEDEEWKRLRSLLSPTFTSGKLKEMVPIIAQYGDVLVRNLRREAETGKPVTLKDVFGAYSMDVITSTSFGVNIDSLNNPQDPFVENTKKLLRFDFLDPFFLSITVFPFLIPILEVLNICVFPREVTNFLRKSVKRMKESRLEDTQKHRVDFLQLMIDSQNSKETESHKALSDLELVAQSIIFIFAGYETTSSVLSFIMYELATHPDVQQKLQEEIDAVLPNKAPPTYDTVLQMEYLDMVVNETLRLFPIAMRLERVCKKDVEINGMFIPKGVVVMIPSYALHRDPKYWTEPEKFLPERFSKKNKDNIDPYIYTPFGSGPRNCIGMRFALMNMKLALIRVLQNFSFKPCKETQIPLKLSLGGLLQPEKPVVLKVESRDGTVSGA

[24] = molecular target: Voltage-gated inwardly rectifying potassium channel KCNH2 (Homo sapiens, UniProt Q12809); assay: Displacement of [3H]dofetilide from human ERG channel
Sequence of Voltage-gated inwardly rectifying potassium channel KCNH2 (Q12809 whole entry): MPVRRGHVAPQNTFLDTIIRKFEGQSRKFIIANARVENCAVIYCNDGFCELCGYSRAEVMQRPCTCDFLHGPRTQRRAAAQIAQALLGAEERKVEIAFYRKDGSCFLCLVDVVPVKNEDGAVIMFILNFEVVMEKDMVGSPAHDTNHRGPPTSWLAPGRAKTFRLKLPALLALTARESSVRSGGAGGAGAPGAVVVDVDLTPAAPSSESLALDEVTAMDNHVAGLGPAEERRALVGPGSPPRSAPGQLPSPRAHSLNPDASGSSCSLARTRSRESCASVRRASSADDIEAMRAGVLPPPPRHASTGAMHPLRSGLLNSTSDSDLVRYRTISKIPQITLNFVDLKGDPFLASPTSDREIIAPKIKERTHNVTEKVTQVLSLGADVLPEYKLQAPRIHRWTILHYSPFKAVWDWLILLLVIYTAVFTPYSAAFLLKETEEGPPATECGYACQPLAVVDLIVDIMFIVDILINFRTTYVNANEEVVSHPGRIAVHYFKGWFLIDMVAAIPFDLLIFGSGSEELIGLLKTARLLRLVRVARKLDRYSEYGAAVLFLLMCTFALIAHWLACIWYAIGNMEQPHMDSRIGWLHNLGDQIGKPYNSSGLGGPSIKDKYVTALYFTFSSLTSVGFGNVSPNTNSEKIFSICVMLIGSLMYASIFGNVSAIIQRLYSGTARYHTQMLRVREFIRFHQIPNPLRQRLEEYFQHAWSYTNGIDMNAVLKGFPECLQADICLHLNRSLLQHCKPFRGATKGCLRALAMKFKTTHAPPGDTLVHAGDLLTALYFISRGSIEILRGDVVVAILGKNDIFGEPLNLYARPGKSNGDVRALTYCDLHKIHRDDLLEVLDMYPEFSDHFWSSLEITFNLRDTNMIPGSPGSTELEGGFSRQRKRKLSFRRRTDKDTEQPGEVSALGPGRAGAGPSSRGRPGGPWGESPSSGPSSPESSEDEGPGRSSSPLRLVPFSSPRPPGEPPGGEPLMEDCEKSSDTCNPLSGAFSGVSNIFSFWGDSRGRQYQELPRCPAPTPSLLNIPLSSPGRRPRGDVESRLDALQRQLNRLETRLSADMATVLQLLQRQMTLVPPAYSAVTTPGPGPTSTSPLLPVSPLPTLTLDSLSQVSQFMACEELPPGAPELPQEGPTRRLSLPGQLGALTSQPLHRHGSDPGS

Sequence of Sodium-dependent noradrenaline transporter (P23975 whole entry): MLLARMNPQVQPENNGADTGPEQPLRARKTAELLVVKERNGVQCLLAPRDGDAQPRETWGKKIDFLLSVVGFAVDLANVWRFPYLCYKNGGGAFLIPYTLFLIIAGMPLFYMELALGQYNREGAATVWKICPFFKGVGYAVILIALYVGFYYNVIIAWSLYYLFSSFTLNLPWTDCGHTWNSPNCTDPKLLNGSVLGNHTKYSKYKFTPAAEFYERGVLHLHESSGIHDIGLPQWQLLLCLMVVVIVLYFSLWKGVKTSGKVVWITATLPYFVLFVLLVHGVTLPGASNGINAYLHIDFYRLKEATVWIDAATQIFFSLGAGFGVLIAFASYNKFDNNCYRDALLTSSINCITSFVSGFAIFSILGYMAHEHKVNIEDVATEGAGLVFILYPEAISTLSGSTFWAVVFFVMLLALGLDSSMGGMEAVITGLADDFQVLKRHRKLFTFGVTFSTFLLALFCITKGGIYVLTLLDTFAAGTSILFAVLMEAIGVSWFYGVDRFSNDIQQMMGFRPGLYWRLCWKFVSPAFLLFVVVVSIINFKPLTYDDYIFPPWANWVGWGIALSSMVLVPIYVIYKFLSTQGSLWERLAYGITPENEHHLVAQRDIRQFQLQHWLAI
Sequence of Sodium-dependent serotonin transporter (P31645 whole entry): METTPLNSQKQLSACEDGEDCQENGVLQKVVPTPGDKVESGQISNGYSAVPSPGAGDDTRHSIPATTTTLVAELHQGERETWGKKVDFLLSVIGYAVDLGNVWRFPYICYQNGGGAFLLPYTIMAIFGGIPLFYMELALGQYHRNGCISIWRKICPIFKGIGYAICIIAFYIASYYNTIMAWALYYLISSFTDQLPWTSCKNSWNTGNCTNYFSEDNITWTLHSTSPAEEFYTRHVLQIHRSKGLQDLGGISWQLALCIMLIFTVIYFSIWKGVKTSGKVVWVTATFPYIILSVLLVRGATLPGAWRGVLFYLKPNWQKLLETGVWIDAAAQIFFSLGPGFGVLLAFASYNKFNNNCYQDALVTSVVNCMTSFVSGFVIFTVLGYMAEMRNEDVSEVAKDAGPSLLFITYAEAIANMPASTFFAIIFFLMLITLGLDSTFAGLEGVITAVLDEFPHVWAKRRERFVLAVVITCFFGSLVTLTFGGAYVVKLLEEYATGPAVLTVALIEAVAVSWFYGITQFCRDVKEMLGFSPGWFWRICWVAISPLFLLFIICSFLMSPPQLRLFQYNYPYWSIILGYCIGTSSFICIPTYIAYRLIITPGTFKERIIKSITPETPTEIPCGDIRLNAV

Compound `CNCc1cnc(C)cc1Oc1ccccc1C(C)C` has a Ki [1] of 82 nM, a Ki [2] of 1980 nM and a Ki [3] of 2130 nM.

Work on `CCc1cc(Cl)ccc1Oc1cc(C)ncc1CN(C)C` yielded a Ki [1] of 22 nM and a Ki [2] of 13 nM.

Work on `CCOc1ccccc1Oc1cc(C)ncc1CN(C)C` yielded a Ki [2] of 4750 nM and a Ki [3] of 2150 nM.

In the case of `CCc1ccccc1Oc1cc(C)ncc1CNC`, the Ki [1] is reported as 366 nM, the Ki [2] is reported as 440 nM and the Ki [3] is reported as 2280 nM.

Work on `CCCc1ccccc1Oc1cc(C)ncc1CN(C)C` yielded a Ki [1] of 159 nM, a Ki [2] of 2820 nM and a Ki [3] of 2250 nM.

With `Cc1cc(Oc2ccccc2Cl)c(CN(C)C)cn1` the Ki [1] was 131 nM, the Ki [2] was 242 nM and the Ki [3] was 1160 nM.

`CNCc1cnc(C)cc1Oc1ccccc1OC` showed a Ki [1] of 921 nM, a Ki [2] of 265 nM and a Ki [3] of 4800 nM.

In the case of `CSc1ccccc1Oc1cc(C)ncc1CN(C)C`, the Ki [1] is reported as 58 nM, the Ki [2] is reported as 384 nM and the Ki [3] is reported as 1930 nM.

With `CNCc1cnc(C)cc1Oc1ccccc1Cl` the Ki [1] was 255 nM, the Ki [2] was 88 nM and the Ki [3] was 834 nM.

`COc1ccccc1Oc1cc(C)ncc1CN(C)C` gave a Ki [1] of 296 nM, a Ki [2] of 1420 nM and a Ki [3] of 4060 nM.

In the case of `CCc1cc(Cl)ccc1Oc1cc(C)ncc1CNC`, the Ki [1] is reported as 74 nM, the Ki [2] is reported as 18 nM and the Ki [3] is reported as 4350 nM.

Work on `CCCc1ccccc1Oc1cc(C)ncc1CNC` yielded a Ki [1] of 438 nM, a Ki [2] of 821 nM and a Ki [3] of 1980 nM.

`CNCc1cnc(C)cc1Oc1ccccc1C` gave a Ki [1] of 951 nM, a Ki [2] of 136 nM and a Ki [3] of 1520 nM.

Work on `CNCc1cnc(C)cc1Oc1ccccc1SC` yielded a Ki [1] of 232 nM, a Ki [2] of 133 nM and a Ki [3] of 1750 nM.

With `Cc1cc(Oc2ccccc2C)c(CN(C)C)cn1` the Ki [1] was 194 nM, the Ki [2] was 235 nM and the Ki [3] was 1410 nM.

Work on `Cc1cc(Oc2ccccc2C(C)C)c(CN(C)C)cn1` yielded a microsomal CLint [4] of 17 µL/min/mg, a Papp B→A [5] of 39 ×10⁻⁶ cm/s and a Ki [1] of 13 nM. The Papp A→B [6] was 38 ×10⁻⁶ cm/s, the logD [7] was 2.5 and the Ki [2] was 1470 nM. It also gave a Ki [3] of 2880 nM.

`Cc1cc(Oc2ccccc2Oc2ccccc2)c(CN(C)C)cn1` showed a microsomal CLint [4] of 29 µL/min/mg, a Papp B→A [5] of 36 ×10⁻⁶ cm/s and a Ki [1] of 10 nM. For the same compound, the pKa [8] was 4.4, the IC50 [9] was 610 nM and the Papp A→B [6] was 41 ×10⁻⁶ cm/s. For the same compound, the logD [7] was 2.4, the Ki [2] was 4060 nM and the Ki [3] was 2640 nM.

For `CCOc1ccccc1Oc1cc(C)ncc1CNC`, the Ki [1] was 461 nM, the Ki [2] was 218 nM and the Ki [3] was 2390 nM.

`CNCc1cnc(C)cc1Oc1ccccc1Oc1ccccc1` gave an IC50 [10] of 2.5 nM, a logP [11] of 4.4 and a Papp B→A [12] of 19 ×10⁻⁶ cm/s. It also gave a Ki [13] of 3400 nM, a CL [14] of 8 µL/min/mg and an inhibition [15] greater than 80%. It also gave a microsomal CLint [4] of less than 7 µL/min/mg, an inhibition [16] greater than 80% and an inhibition [17] greater than 80%. The IC50 [18] was greater than 3000 nM, the Papp B→A [5] was 41 ×10⁻⁶ cm/s and the half-life [19] was greater than 2 h. It also gave a Ki [1] of 10 nM, a Ki [20] of 1200 nM and a Papp A→B [21] of 11 ×10⁻⁶ cm/s. The pKa [8] was 4.4, the IC50 [9] was 3400 nM and the Activity [22] was 400%. It also gave a Papp A→B [6] of 25 ×10⁻⁶ cm/s, a logD [7] of 1.6 and an IC50 [23] greater than 3000 nM. It also gave a Ki [2] of 823 nM, a Ki [3] of 1910 nM and a Ki [24] of 5800 nM.

In the case of `CCc1ccccc1Oc1cc(C)ncc1CN(C)C`, the microsomal CLint [4] is reported as less than 7 µL/min/mg, the Ki [1] is reported as 27 nM and the logD [7] is reported as 2.1. For the same compound, the Ki [2] was 279 nM, the Ki [3] was 2660 nM and the IC50 [24] was greater than 20000 nM.
